Data reported in ChEMBL document CHEMBL3046120, “Synthesis and root growth-inhibitory activity of 2- and 3-(haloacetylamino)-3-(2-furyl)propanoic acids” (2003).

What follows are molecules tested on Brassica rapa subsp. oleifera (assay: Herbicidal activity against Brassica rapa subsp. oleifera seedling assessed as root growth inhibition at 1 x10 ' -4 M measured after 7 days). Details: 168 h, read-out: GI.
Assay type: functional

Structure (SMILES)	inhibition of growth at 100 µM [%]
CC(=O)NC(CC(=O)O)c1ccco1 (racemic)	22
NC(Cc1ccco1)C(=O)O (racemic)	7
CC(=O)NC(Cc1ccco1)C(=O)O (racemic)	19
O=C(CCl)NC(Cc1ccco1)C(=O)O (racemic)	51
NC(CC(=O)O)c1ccco1 (racemic)	16
O=C(O)CC(NC(=O)CCl)c1ccco1 (racemic)	55
O=C(CF)NC(Cc1ccco1)C(=O)O (racemic)	90
O=C(O)CC(NC(=O)CF)c1ccco1 (racemic)	43
O=C(O)COc1ccc(Cl)cc1Cl [2,4-DICHLOROPHENOXYACETIC ACID]	100
